From the NIST ThermoML archive (doi:10.1016/j.fluid.2006.09.001)
Values joined by “and” are separate entries in the source; they are usually repeats but may differ in a detail not shown here. Identical values can stand only once.

Conditions: Liquid, Transpiration method

COCCOCCOCCOc1ccccc1Br [1-bromo-2-(2-(2-(2-methoxyethoxy)ethoxy)ethoxy)benzene]
Conditions | vapor or sublimation pressure [kPa]
333.2 K | 6.1e-05
337.3 K | 8.8e-05
339.3 K | 0.000111
341.3 K | 0.000132
343.4 K | 0.000158
345.5 K | 0.000188
347.5 K | 0.000218
349.7 K | 0.000272
351.7 K | 0.000329
353.6 K | 0.000382
355.7 K | 0.000446
357.8 K | 0.000555
359.8 K | 0.000649
360.6 K | 0.000704
362 K | 0.000796
363 K | 0.000826
365 K | 0.000993
367.9 K | 0.001244
369.9 K | 0.001446

COCCOCCOc1ccccc1Br [1-bromo-2-(2-(2-methoxyethoxy)ethoxy)benzene]
Conditions | vapor or sublimation pressure
310.4 K | 9e-05 kPa
313.2 K | 0.00012 kPa
317.4 K | 0.00016 kPa
318.6 K | 0.00019 kPa
320.3 K | 0.00021 kPa
322.6 K | 0.00026 kPa
324.3 K | 0.0003 kPa
325.4 K | 0.00036 kPa
327.6 K | 0.00043 kPa
327.7 K | 0.00043 kPa
328.3 K | 0.00047 kPa and 0.00045 kPa
329 K | 0.00045 kPa
332.4 K | 0.00063 kPa
332.5 K | 0.00062 kPa
332.7 K | 0.00063 kPa
334.5 K | 0.00076 kPa
335.4 K | 0.00081 kPa
337.9 K | 0.00096 kPa
339.1 K | 0.00113 kPa
342 K | 0.00135 kPa
343.5 K | 0.00153 kPa
345 K | 0.00167 kPa
346.5 K | 0.00205 kPa
347.6 K | 0.00219 kPa
348 K | 0.0022 kPa
349.5 K | 0.00252 kPa
350.1 K | 0.00253 kPa
350.6 K | 0.0028 kPa
353 K | 0.00325 kPa
355.1 K | 0.00383 kPa
356 K | 0.0041 kPa
359.2 K | 0.0052 kPa
360.3 K | 0.00566 kPa
361.1 K | 0.00611 kPa
363.3 K | 0.007 kPa
365.2 K | 0.00835 kPa
368.4 K | 0.01027 kPa and 0.01025 kPa
370.8 K | 0.01177 kPa
373.5 K | 0.01407 kPa

COCCOc1ccccc1Br [1-bromo-2-(2-methoxyethoxy)benzene]
Conditions | vapor or sublimation pressure
302.4 K | 0.0011 kPa
307.4 K | 0.00174 kPa
312.4 K | 0.00268 kPa
315 K | 0.00321 kPa
317.5 K | 0.00391 kPa
319.5 K | 0.00453 kPa and 0.00475 kPa
322.6 K | 0.0062 kPa
324.6 K | 0.00691 kPa
327.6 K | 0.00867 kPa
332.7 K | 0.01255 kPa
337.8 K | 0.01854 kPa
343 K | 0.02628 kPa
348.1 K | 0.03518 kPa
353.2 K | 0.04763 kPa
356.3 K | 0.05583 kPa
358.2 K | 0.06719 kPa
360.7 K | 0.07401 kPa
361.8 K | 0.07914 kPa
363.3 K | 0.08516 kPa
366.8 K | 0.1095 kPa
368.4 K | 0.1199 kPa
